Source: patent US10815238B2, “Antimicrobial compounds and methods of making and using the same” (BIOVERSYS AG, priority 2013, dated 2020)

Experiments:
[1] = test system: Eschericia coli (E. coli) strain ATCC25922; assay: Standard microdilution assay, MIC against E. coli ATCC25922; format: cell-based; details: Escherichia coli; E. coli strain ATCC25922, standard microdilution assay; cutoff 16 micrograms/mL; read-out: MIC E. Coli
Procedure, shortened: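 Scoring as + or − used a 16 micrograms/mL cutoff on minimum inhibitory concentrations. These came from CLSI-standard microdilution, quality-controlled with reference strains tested in the same run.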

[2] = test system: Staphylococcus aureus (S. aureus) 11540 strain; assay: Standard microdilution assay, MIC against S. aureus 11540; format: cell-based; details: S. aureus 11540 strain, standard microdilution assay, cutoff 16 micrograms/mL, read-out: MIC S. aureus
Method: The in vitro activity of the compounds of the present invention can be determined. Antimicrobial testing is typically performed to determine the minimum inhibitory concentration (MIC). Minimum inhibitory concentrations (MICs) are determined by the microdilution method in a final volume of 100 μl according to protocols outlined by The Clinical and Laboratory Standards Institute (CLSI). Performance standards for reference strains are assessed within the same experimental design to maintain quality control. See, for example, Clinical Laboratory Standards Institute: Methods for dilution antimicrobial susceptibility tests for bacteria that grow aerobically M7-A8. Approved Standard-Eighth Edition. Wayne, Pa.: CLSI; December 2008; and Clinical Laboratory Standards Institute: Performance Standards for Antimicrobial Susceptibility Testing M100-S20; Approved Standard-Twentieth Edition. Wayne, Pa.: CLSI; June 2010.
The compounds of the present invention were tested for antimicrobial activity. The Compounds 1-582 were run against Eschericia coli (E. coli) strain ATCC25922 and Compounds 320-582 were run against Staphylococcus aureus (S. aureus) 11540 strain using a standard microdilution assay to determine minimum inhibitory concentrations (MICs). […] It will be recognized by one skilled in the art that the compounds can be assessed against other bacterial organisms and that the presentation of data for activity against Eschericia coli and Staphylococcus aureus are illustrative and in no way is intended to limit the scope of the present invention. The compounds of the present invention can be assayed against a range of other microorganisms depending upon the performance activity desired to be gathered. Furthermore, the “+” and “−” representation and the selection of a cutoff value of 16 micrograms/mL is also illustrative and in no way is intended to limit the scope of the present invention.

Row | SMILES | MIC [1] [µg/mL] | MIC [2] [µg/mL]
1 | C[C@H](N)CCCc1cc(Cl)c(F)c(-c2cc3cn(-c4ccc([C@H]5CCC[C@@H](CCNC(=N)N)N5)cc4)c(=O)nc3[nH]2)c1 [Compound 444] | < 16 | < 16
2 | CCOP(=O)(OCC)OC[C@@H]1COC[C@H](c2ccc(-n3cc4cc(-c5cc(CCC[C@H](C)N)cc(Cl)c5F)[nH]c4nc3=O)cc2)N1 [Compound 468] | > 16 | < 16
3 | CC#C[C@@H](CCNC(=N)N)NCc1ccc(-n2cc3cc(-c4cc(CCC[C@H](C)N)cc(Cl)c4F)[nH]c3nc2=O)cc1 [Compound 507] | < 16 | < 16
4 | C[C@H](N)CCCc1cc(-c2cc3cn(CC(=O)NCc4ccc(CNC(=N)N)cc4)c(=O)nc3[nH]2)cc(C(F)(F)F)c1 [Compound 582] | > 16 | > 16
5 | C[C@H](N)CCCc1cc(OC(F)(F)F)c(F)c(-c2cc3cn(-c4ccc([C@H](C)N[C@@H](CCNC(=N)N)C(=O)O)cc4)c(=O)nc3[nH]2)c1 [Compound 364] | > 16 | > 16
6 | N=C(N)NCC[C@H](CN)NCc1ccc(-n2cc3cc(-c4cc(CCC[C@@H](N)CO)cc(Cl)c4F)[nH]c3nc2=O)cc1 [Compound 394] | < 16 | < 16
7 | C[C@H](N)CCCc1cc(OC(F)(F)F)c(F)c(-c2cc3cn(-c4ccc(CN[C@@H](C)C[C@H](CCO)NC(=N)N)cc4)c(=O)nc3[nH]2)c1 [Compound 361] | < 16 | < 16
8 | C[C@H](N)CCCc1cc(Cl)c(F)c(-c2cc3cn(-c4ccc(CNCC[C@@H](CN)NC(=N)N)cc4)c(=O)nc3[nH]2)c1 [Compound 375] | < 16 | < 16
9 | C[C@H](N)CCCc1cc(Cl)c(F)c(-c2cc3cn(-c4ccc([C@@H]5CCC[C@@H](CNC(=N)N)N5)cc4)c(=O)nc3[nH]2)c1 [Compound 540] | < 16 | < 16
10 | COC[C@@H](CCNC(=N)N)NCc1ccc(-n2cc3cc(-c4cc(CCC[C@H](C)N)cc(Cl)c4F)[nH]c3nc2=O)cc1 [Compound 340] | < 16 | < 16
11 | C[C@H](N)CCCc1cc(OC(F)(F)F)c(F)c(-c2cc3cn(-c4ccc([C@H](C)NCCC(CC5CNC5)NC(=N)N)cc4)c(=O)nc3[nH]2)c1 (stereo partly drawn) [Compound 481] | < 16 | < 16
12 | C[C@H](N)CCCc1cc(OC(F)(F)F)c(F)c(-c2cc3cn(-c4ccc(C(=N)NCCCN)cc4)c(=O)nc3[nH]2)c1 [Compound 462] | < 16 | < 16
13 | C[C@H](N)CCCc1cc(Cl)c(F)c(-c2cc3cn(-c4ccc([C@@H]5CC(CCNC(=N)N)CN5)cc4)c(=O)nc3[nH]2)c1 (stereo partly drawn) [Compound 405] | < 16 | < 16
14 | N=C(N)NCC[C@@H]1CCC[C@@H](c2ccc(-n3cc4cc(-c5ccc(S(=O)(=O)NC6CCNCC6)cc5)[nH]c4nc3=O)cc2)N1 [Compound 492] | < 16 | < 16
15 | C[C@H](N)CCCc1cc(Cl)c(F)c(-c2cc3cn(-c4ccc([C@H]5COC[C@@H](CNC(=N)N)N5)cc4)c(=O)nc3[nH]2)c1 [Compound 451] | < 16 | < 16
16 | C[C@H](N)CCCc1cc(Cl)c(F)c(-c2cc3cn(-c4ccc(CN[C@H](CCNC(=N)N)Cn5ccnn5)cc4)c(=O)nc3[nH]2)c1 [Compound 499] | < 16 | < 16
17 | C[C@H](N)CCCc1cc(Cl)c(F)c(-c2cc3cn(-c4ccc([C@@H]5CCC[C@@H](CCn6cccn6)N5)cc4)c(=O)nc3[nH]2)c1 [Compound 530] | > 16 | > 16
18 | C[C@H](N)CCCc1cc(Cl)c(F)c(-c2cc3cn(-c4ccc(CN[C@@H](C)C[C@H](CO)NC(=N)N)cc4)c(=O)nc3[nH]2)c1 [Compound 437] | < 16 | < 16

Row | SMILES | MIC [1] [µg/mL] | MIC [2] [µg/mL]
19 | C[C@H](N)CCCc1cc(OC(F)(F)F)c(F)c(-c2cc3cn(-c4ccc([C@H](C)NCC[C@H](CNC(=O)CN)NC(=N)N)cc4)c(=O)nc3[nH]2)c1 [Compound 369] | < 16 | < 16
20 | C[C@H](N)CCCc1cc(Cl)c(F)c(-c2cc3cn(-c4ccc(C(O)[C@@H]5C[C@@H](NC(=N)N)CN5)cc4)c(=O)nc3[nH]2)c1 (stereo partly drawn) [Compound 447] | < 16 | < 16
21 | CC[C@H](N)CCCc1cc(Cl)c(F)c(-c2cc3cn(-c4ccc([C@H](C)NCC[C@H](CN)NC(=N)N)cc4)c(=O)nc3[nH]2)c1 [Compound 414] | < 16 | < 16
22 | C[C@H](N)CCCc1cc(Cl)c(F)c(-c2cc3cn(-c4ccc(C(=O)NCCCN)cc4)c(=O)nc3[nH]2)c1 [Compound 475] | < 16 | < 16
23 | C[C@H](N)CCCc1cc(Cl)c(F)c(-c2cc3cn(-c4ccc([C@@H]5CCC[C@@H](CCc6nccs6)N5)cc4)c(=O)nc3[nH]2)c1 [Compound 546] | > 16 | < 16
24 | C[C@H](N)CCCc1cc(OC(F)(F)F)c(F)c(-c2cc3cn(-c4ccc([C@H](C)NCC[C@H](CC#N)NC(=N)N)cc4)c(=O)nc3[nH]2)c1 [Compound 333] | < 16 | < 16
25 | C=C[C@H](C[C@H](C)NCc1ccc(-n2cc3cc(-c4cc(CCC[C@H](C)N)cc(OC(F)(F)F)c4F)[nH]c3nc2=O)cc1)NC(=N)N [Compound 339] | < 16 | < 16
26 | C[C@H](N)CCCc1cc(OC(F)(F)F)c(F)c(-c2cc3cn(-c4ccc([C@@H]5CCC[C@@H](CCn6ccnn6)N5)cc4)c(=O)nc3[nH]2)c1 [Compound 479] | > 16 | > 16
27 | C[C@H](NCCCNC(=N)N)c1ccc(-n2cc3cc(-c4cc(CCC[C@@H](N)COC(=O)Cc5ccccc5)cc(Cl)c4F)[nH]c3nc2=O)cc1 [Compound 331] | < 16 | < 16
28 | C[C@H](N)CCCc1cc(Cl)c(F)c(-c2cc3cn(-c4ccc([C@@H]5CCC[C@H]6CCN=CN65)cc4)c(=O)nc3[nH]2)c1 [Compound 567] | > 16 | < 16
29 | C[C@@H](CN)CN1CC[C@@H](c2cc3cn(-c4ccc([C@H](C)NCCCNC(=N)N)cc4)c(=O)nc3[nH]2)C1 [Compound 575] | < 16 | < 16
30 | C[C@H](N)CCCc1cc(Cl)c(F)c(-c2cc3cn(-c4ccc(CN[C@H](CCN)Cn5ccnn5)cc4)c(=O)nc3[nH]2)c1 [Compound 500] | < 16 | < 16
31 | C[C@H](N)CCCc1cc(OC(F)(F)F)c(F)c(-c2cc3cn(-c4ccc([C@@H]5COC[C@@H](CNC(=N)N)N5)cc4)c(=O)nc3[nH]2)c1 [Compound 466] | < 16 | < 16
32 | C[C@H](N)CCCc1cc(Cl)c(F)c(-c2cc3cn(-c4ccc(CN[C@H](CCNC(=N)N)CCc5nccs5)cc4)c(=O)nc3[nH]2)c1 [Compound 528] | < 16 | < 16
33 | COCC[C@H](CCN[C@@H](C)c1ccc(-n2cc3cc(-c4cc(CCC[C@H](C)N)cc(Cl)c4F)[nH]c3nc2=O)cc1)NC(=N)N [Compound 347] | < 16 | < 16
34 | C[C@H](N)CCCc1cc(Cl)c(F)c(-c2cc3cn(-c4ccc([C@H](C)N[C@H](CO)CCNC(=N)N)cc4)c(=O)nc3[nH]2)c1 [Compound 367] | < 16 | < 16
35 | C[C@H](N)CCCc1cc(Cl)c(F)c(-c2cc3cn(-c4ccc(CN[C@@H](C)C[C@@H](CO)NC(=N)N)cc4)c(=O)nc3[nH]2)c1 [Compound 436] | < 16 | < 16
36 | CC[C@H](N)CCCc1cc(Cl)c(F)c(-c2cc3cn(-c4ccc(CNCC[C@H](CN)NC(=N)N)cc4)c(=O)nc3[nH]2)c1 [Compound 415] | < 16 | < 16
